“And” between values parts separate entries of the source, which are not always exact repeats. Equal values may be shown once.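 These data come from cells grown in 96-well plates and exposed to compound for 48 hours at five concentrations. GI50: concentration for 50% inhibition of growth. TGI marks complete inhibition of growth.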
How the values were obtained:
Experiment in all cases: NCI-60 cell line screen, 48 h
M14 melanoma = test system: M14 melanoma
HT29 colon = test system: HT29 colon
A498 renal = test system: A498 renal
TK-10 renal = test system: TK-10 renal
NCI-H522 lung = test system: NCI-H522 lung
SW-620 colon = test system: SW-620 colon
OVCAR-8 ovarian = test system: OVCAR-8 ovarian
HCT-116 colon = test system: HCT-116 colon
SR leukemia = test system: SR leukemia
HCT-15 colon = test system: HCT-15 colon

SMILES | TGI (M14 melanoma) [µM] | TGI (HT29 colon) | TGI (A498 renal) [µM] | TGI (TK-10 renal) [µM] | TGI (NCI-H522 lung) | TGI (SW-620 colon) [µM] | TGI (OVCAR-8 ovarian) [µM] | TGI (HCT-116 colon) | TGI (SR leukemia) | TGI (HCT-15 colon) [µM] | GI50 (M14 melanoma) | GI50 (A498 renal) [µM] | GI50 (TK-10 renal) [µM] | GI50 (SW-620 colon) [µM] | GI50 (OVCAR-8 ovarian) [µM] | GI50 (HCT-116 colon) [µM] | GI50 (HT29 colon) [µM] | GI50 (SR leukemia) [µM] | GI50 (NCI-H522 lung) | GI50 (HCT-15 colon)
O=C(c1ccccc1)C1OC12C(=O)Nc1ccccc12 (stereo unspecified) | 63 | 37.9 µM | > 100 | > 100 | 28.2 µM | 62.6 | > 100 | > 100 µM |  |  |  |  |  |  |  |  |  |  |  | 
CC(=O)O[C@]12CCCCCC1C1(O)C(O)CCCC[C@H]12 (stereo partly specified) | > 100 | > 100 µM |  | > 100 | > 100 µM | > 100 | > 100 |  | > 100 µM | > 100 |  |  |  |  |  |  |  |  |  | 
CC(CO)(CO)NCCCCn1ccc2c1C(=O)c1c(c(O)c3ccccc3c1O)C2=O | 3.41 |  | 51 | 4.57 |  | 29.2 | 12 | 2.92 µM |  |  | 1.73 µM | 22.3 | 1.51 | 5.47 | 3.48 | 1.58 |  |  |  | 
O=c1c2cc(Br)cc(Br)c2nc(CCCl)n1CCO | > 100 | > 100 µM | > 100 | > 100 | > 100 µM | > 100 | > 100 | > 100 µM |  |  |  |  |  |  |  |  |  |  |  | 
COc1ccc(C(=O)COc2ccc(/C=C3\COc4ccc(OC)cc4C3=O)cc2)cc1 | > 100 | > 100 µM |  | 48.7 | 74.5 µM | > 100 | 66.5 | 31.1 µM | 5.91 µM | > 100 | 39.7 µM |  | 19.1 | 4.99 | 18.4 | 11.1 | 22.2 | 2.09 | 16.7 µM | 22.3 µM
COc1cc(/C=C(\C#N)c2ccccc2)cc(OC)c1 | > 100 | > 100 µM |  | > 100 | > 100 µM | > 100 |  | > 100 µM | > 100 µM | > 100 |  |  |  |  |  |  |  |  |  | 
C=CC/C=C/C/C=C/CCCCCCCc1cccc(O)c1C(=O)O | > 100 | > 100 µM |  | > 100 | > 100 µM | > 100 | > 100 | > 100 µM | > 100 µM | > 100 |  |  |  |  |  |  |  |  |  | 
NC(=O)NCc1c(C(N)=O)ncn1Cc1ccccc1 | > 100 | > 100 µM | > 100 | > 100 |  | > 100 | > 100 | > 100 µM |  | > 100 |  |  |  |  |  |  |  |  |  | 
CC(C)(C)c1cc(C(O)(C(F)(F)F)C(F)(F)F)c2c(c1)C(C(F)(F)F)(C(F)(F)F)OC(C(C)(C)C)N2 (stereo unspecified) | 18.2 | 9.37 µM |  | 11.9 | 7.39 µM | 13.8 | 13.1 | 12.8 µM | 7.2 µM | 11.7 |  |  |  |  |  |  |  |  |  | 
OCc1ccc(C2CC(c3ccco3)=NN2c2ccccc2)o1 (stereo unspecified) | > 100 | > 100 µM |  | > 100 | > 100 µM | > 100 | > 100 | > 100 µM | > 100 µM | > 100 |  |  |  |  |  |  |  |  |  | 
Nc1ccc2cc3ccc(N)cc3nc2c1 |  | 9.02 µM [middle of 4 runs] |  |  | 1.31 µM and 2.82 µM and 2.87 µM |  |  | 10.8 µM [middle of 4 runs] | 14.1 µM and 2.1 µM and 6.96 µM |  | 1.77 µM [middle of 4 runs] |  | 0.513 |  | 0.599 |  |  |  | 0.295 µM and 0.542 µM and 0.824 µM | 1.95 µM [middle of 4 runs]
CC(=O)C(=CN1CCN(C(=O)c2ccco2)C1=S)C(C)=O | 15.4 | 53.8 µM |  | 14.3 |  | 31.3 | 45.1 | 13.7 µM | > 100 µM | 5.55 | 4.03 µM |  | 4.19 | 14.6 | 8.15 | 4.05 | 17.1 | 2.26 |  | 2.16 µM
O=C1NC(=O)C(CC2CCCCCCCCCCC2=O)C(=O)N1 (stereo unspecified) | > 100 | > 100 µM |  | > 100 | > 100 µM | > 100 | > 100 | > 100 µM | 5.28 µM | > 100 |  |  |  |  |  |  |  |  |  | 
C/C(CC(=O)NCCc1ccccc1)=N\NC(=O)C[n+]1ccccc1 | > 100 | > 100 µM | > 100 | > 100 | > 100 µM | > 100 | > 100 | > 100 µM |  | > 100 |  |  |  |  |  |  |  |  |  | 
O=C1/C(=C/c2cccc([N+](=O)[O-])c2)COc2ccc(Br)cc21 |  | > 100 µM | > 100 | > 100 | > 100 µM | > 100 | > 100 | > 100 µM |  |  |  |  |  |  |  |  |  |  |  | 
Clc1ccc2c(c1)-c1c3c(nn1-c1ccccc1)-c1ccccc1SC3O2 (stereo unspecified) |  | > 100 µM | > 100 | > 100 | 87.5 µM | > 100 | > 100 | > 100 µM |  |  |  |  |  |  |  |  |  |  |  | 

SMILES | TGI (M14 melanoma) [µM] | TGI (HT29 colon) | TGI (A498 renal) [µM] | TGI (TK-10 renal) [µM] | TGI (NCI-H522 lung) | TGI (SW-620 colon) [µM] | TGI (OVCAR-8 ovarian) [µM] | TGI (HCT-116 colon) | TGI (SR leukemia) | TGI (HCT-15 colon) [µM] | GI50 (M14 melanoma) | GI50 (A498 renal) [µM] | GI50 (TK-10 renal) [µM] | GI50 (SW-620 colon) [µM] | GI50 (OVCAR-8 ovarian) [µM] | GI50 (HCT-116 colon) [µM] | GI50 (HT29 colon) [µM] | GI50 (SR leukemia) [µM] | GI50 (NCI-H522 lung) | GI50 (HCT-15 colon)
Cn1c2ccccc2c(=O)c2ccc(Cl)cc21 |  | > 10 µM |  | > 10 |  | > 10 | > 10 | > 10 µM | > 10 µM | > 10 |  |  |  |  |  |  |  |  |  | 
CCSc1nc(SCC)c2cn[nH]c2n1 | > 100 | > 100 µM | 13.1 | > 100 | > 100 µM | > 100 | > 100 | > 100 µM |  | > 100 | > 100 µM | 2.47 | 58.3 | 39.5 | 62.7 | 36.6 | 62.9 |  | 35.7 µM | 66.3 µM
Nc1ccn(C2CCC(CO)O2)c(=O)n1 (stereo unspecified) | > 1000 | > 1000 µM |  | > 1000 | > 1000 µM | > 1000 | > 1000 | > 1000 µM | > 1000 µM | > 1000 |  |  |  | > 1000 |  | > 1000 | > 1000 |  |  | > 1000 µM
O=C1OC2CCCC[C@@H]2C2C[C@]34CCCCC3[C@@H](C(=O)O4)C12 (stereo partly specified) | > 100 | > 100 µM | > 100 | > 100 | > 100 µM | > 100 | > 100 | > 100 µM |  | > 100 |  |  |  |  |  |  |  |  |  | 
C1C[OH+]CC[OH+]CC[OH+]CC[OH+]CC[OH+]1.[Cl-].[V] | > 100 | > 100 µM | > 100 | > 100 | > 100 µM | > 100 | > 100 | > 100 µM |  | > 100 | 45.3 µM | > 100 | 83.5 | > 100 | > 100 | > 100 | > 100 |  | > 100 µM | > 100 µM
CCOC(=O)NC(=O)c1cn(CCCOC(=O)CCCCCCCCCCC(=O)OCCCn2cc(C(=O)NC(=O)OCC)c(=O)[nH]c2=O)c(=O)[nH]c1=O | > 100 | > 100 µM |  | > 100 |  | > 100 | > 100 | > 100 µM | > 100 µM |  |  |  |  |  |  |  |  |  |  | 
COc1ccc(/C=C/c2cc(OC)cc(=O)o2)cc1 | > 100 | > 100 µM |  | > 100 |  | > 100 | > 100 | > 100 µM | > 100 µM | > 100 |  |  |  |  |  |  |  |  |  | 
CSC(C1c2ccccc2N(c2ccc(C)cc2)c2[nH]c(=O)n(C)c(=O)c21)S(=O)(=O)c1ccc(C)cc1 (stereo unspecified) | > 100 | > 100 µM | > 100 | > 100 | > 100 µM | > 100 | > 100 | > 100 µM |  |  |  |  |  |  |  |  |  |  |  | 
COc1cc(NC(C)CCCN)c2nccc(C)c2c1 (stereo unspecified) | 33.7 | > 100 µM |  | 63.5 | 33.3 µM |  |  | 29.3 µM | 53.1 µM | 49.7 |  |  |  |  |  |  |  |  |  | 
Cc1ccc(S(=O)(=O)C(C#N)c2nc3ccccc3nc2-n2ccnc2)cc1 (stereo unspecified) | > 100 | > 100 µM |  | > 100 | > 100 µM |  | > 100 | > 100 µM |  | > 100 |  |  |  |  |  |  |  |  |  | 
O=C1CCC(O)=C1N=Nc1ccccc1 | > 100 | > 100 µM | > 100 | > 100 |  | > 100 | > 100 | > 100 µM |  | > 100 |  |  |  |  |  |  |  |  |  | 
CN(C)c1cc[c]([Sn]([c]2ccc(N(C)C)cc2)([c]2ccc(N(C)C)cc2)[c]2ccc(N(C)C)cc2)cc1 | 21.6 | 12.7 µM | 20.3 | 31.4 |  | 20.5 | 56.3 | 13.9 µM |  | > 100 | 9.18 µM | 7.47 | 15.7 | 4.66 | 9.57 | 3.94 | 2.91 |  |  | > 100 µM
O=C(O)[C@H](NS(=O)(=O)c1ccc([N+](=O)[O-])cc1)c1ccccc1 | > 100 | > 100 µM |  | > 100 | > 100 µM | > 100 | > 100 | > 100 µM |  | > 100 |  |  |  |  |  |  |  |  |  | 
CN(CCC#N)c1ccc(/C=C(\C#N)c2ccc(Br)cc2)cc1 |  | > 100 µM | > 100 | > 100 |  | > 100 | > 100 |  |  | > 100 |  | > 100 | > 100 | 3.87 | > 100 |  | 3.16 |  |  | 2.9 µM
COc1ccc(CCN2COc3c([C@@H](C)CCC=C(C)C)ccc(C)c3C2)cc1OC | 3.18 | 5.73 µM | 11.9 | 5.95 |  | 4.08 | 20.2 | 4.94 µM |  | 10.4 | 1.69 µM | 1.96 | 2.19 | 1.91 | 4.21 | 2.17 | 2.2 |  |  | 2.84 µM

Source: PubChem BioAssay (NCI)
